Reference: US20230233559A1, “COMBINATION OF ZIDOVUDINE AND FLUOROQUINOLONE ANTIBIOTIC” (HELPERBY THERAPEUTICS LIMITED, priority 2019, published 2023)

Columns and labels:
Assay type in all cases: cell-based
Conditions in all cases: fluoroquinolone alone
[1] = system: BAA2472 NDM-1 Klebsiella pneumoniae; assay: Chequerboard MIC, log phase BAA2472
Procedure: (§1) The chequerboard method used in Example 1 followed the protocols detailed in Antimicrob Chemo (2013) 68, 374-384. Zidovudine and ciprofloxacin were obtained from commercially available sources. The bacteria used were BAA2469 NDM-1 Escherichia coli, BAA2470 NDM-1 Klebsiella pneumoniae, BAA2471 NDM-1 Escherichia coli, BAA2472 NDM-1 Klebsiella pneumoniae, and NCTC13443 NDM-1 Klebsiella pneumoniae. All strains were obtained from a commercial source and log phase growth of the bacteria was carried out using methods known in the art.
(§2) The effects of the combination of the present invention were examined by calculating the fractional inhibitory concentration index (FICI) of each combination, as follows:
(§3) (MIC of drug A, tested in combination)/(MIC of drug A, tested alone)+(MIC of drug B, tested in combination)/(MIC of drug B, tested alone).
(§4) The interaction of the combination was defined as showing synergy if the FICI was ≤0.5, no interaction if the FICI was >0.5 but <4.0 and antagonism if the FICI was >4.0.
(§5) The method and bacterial strains were identical to Example 1. Zidovudine and levofloxacin were obtained from commercially available sources. The effects of the combination of the present invention were examined by calculating the MIC for each drug alone and in combination in the same manner as Example 1.
as §5, with “moxifloxacin” for “levofloxacin”

[2] = system: NCTC13443 NDM-1 Klebsiella pneumoniae; assay: Chequerboard MIC, log phase NCTC13443
Procedure: as §1, §2, §3, §4, §5
as §5, with “moxifloxacin” for “levofloxacin”

[3] = system: BAA2471 NDM-1 Escherichia coli; assay: Chequerboard MIC, log phase BAA2471
Procedure: as §1, §2, §3, §4, §5
as §5, with “moxifloxacin” for “levofloxacin”

[4] = system: BAA2470 NDM-1 Klebsiella pneumoniae; assay: Chequerboard MIC, log phase BAA2470
Procedure: as §1, §2, §3, §4, §5
as §5, with “moxifloxacin” for “levofloxacin”

[5] = system: BAA2469 NDM-1 Escherichia coli; assay: Chequerboard MIC, log phase BAA2469
Procedure: as §1, §2, §3, §4, §5
as §5, with “moxifloxacin” for “levofloxacin”

Row | Compound | MIC [1] | MIC [2] | MIC [3] | MIC [4] | MIC [5]
1 | C[C@H]1COc2c(N3CCN(C)CC3)c(F)cc3c(=O)c(C(=O)O)cn1c23 [Levofloxacin, (2S)-7-fluoro-2-methyl-6-(4-methylpiperazin-1-yl)-10-oxo-4-oxa-1-azatricyclo[7.3.1.0^5,13]trideca-5(13),6,8,11-tetraene-11-carboxylic acid] | 32 µg/mL | 32 µg/mL | 32 µg/mL | 8 µg/mL | 8 µg/mL
2 | O=C(O)c1cn(C2CC2)c2cc(N3CCNCC3)c(F)cc2c1=O [Ciprofloxacin, 1-cyclopropyl-6-fluoro-1,4-dihydro-4-oxo-7-(1-piperazinyl)-3-quinolinecarboxylic acid] | 64 µg/mL | 64 µg/mL | > 64 µg/mL | 8 µg/mL | 64 µg/mL
3 | COc1c(N2C[C@@H]3CCCN[C@@H]3C2)c(F)cc2c(=O)c(C(=O)O)cn(C3CC3)c12 [Moxifloxacin, 7-[(4aS,7aS)-1,2,3,4,4a,5,7,7a-octahydropyrrolo[3,4-b]pyridin-6-yl]-1-cyclopropyl-6-fluoro-8-methoxy-4-oxoquinoline-3-carboxylic acid] | 128 µg/mL | 128 µg/mL | 128 µg/mL | 32 µg/mL | 16 µg/mL
